Measured values reported in patent US7842695B2, “Substituted pyrazole compounds” (Merck Patent GmbH, priority 2003, dated 2010).

Legend:
[1] = biological target: 5-HT2A receptors (UniProt P14842); assay: in-vitro affinity to 5-HT2A receptors, [3H]ketanserine displacement (Example A1); format: binding
Text: The 5-HT2A receptors are exposed both to [^3H]ketanserine (a substance known for its affinity to the receptor) and also to the test compound. The decrease in the affinity of [^3H]ketanserine to the receptor is an indication of the affinity of the test substance to the 5-HT2A receptor.

[2] = biological target: T1, 5 HT2C receptor (Homo sapiens, UniProt P28335); assay: affinity to the 5 HT2C receptor; format: binding
T1 sequence (P28335 33-458): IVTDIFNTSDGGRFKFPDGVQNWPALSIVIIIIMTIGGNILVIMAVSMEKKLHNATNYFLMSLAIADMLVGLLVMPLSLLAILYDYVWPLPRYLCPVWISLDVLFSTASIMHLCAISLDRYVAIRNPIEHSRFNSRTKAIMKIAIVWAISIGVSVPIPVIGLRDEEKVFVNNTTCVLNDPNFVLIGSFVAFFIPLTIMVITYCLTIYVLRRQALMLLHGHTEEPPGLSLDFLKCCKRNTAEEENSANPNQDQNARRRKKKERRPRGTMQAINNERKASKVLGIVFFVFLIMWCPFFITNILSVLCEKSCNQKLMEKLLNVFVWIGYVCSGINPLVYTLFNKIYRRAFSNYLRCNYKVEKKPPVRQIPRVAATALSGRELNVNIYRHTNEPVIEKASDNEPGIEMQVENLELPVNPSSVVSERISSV

**Q.** For CC(C)(C)OC(=O)N1CCN(Cc2cnn(-c3ccc(-c4ccc5c(c4)OCO5)cc3)c2-c2ccco2)CC1 [Example 547, tert-Butyl 4-[1-(4-benzo-1,3-dioxol-5-ylphenyl)-5-furan-2-yl-1H-pyrazol-4-ylmethyl]piperazine-1-carboxylate], which IC50 [1] is on record?
**A.** 4.8 nM

**Q.** And the IC50 [2]?
**A.** 1000 nM

**Q.** OC1CCN(Cc2cnn(-c3ccc(-c4cccc(F)c4)cc3)c2-c2ccco2)C1 (centres unmarked) [Example 562, 1-[1-(3′-Fluorobiphenyl-4-yl)-5-furan-2-yl-1H-pyrazol-4-ylmethyl]pyrrolidin-3-ol] was tested. Which IC50 [1] did it give?
**A.** 9.1 nM

**Q.** What about the IC50 [2] of the same compound?
**A.** 530 nM

**Q.** What does the source list for CCN1CCN(Cc2cnn(-c3ccc(-c4ccc(F)cc4)cc3)c2-n2cccc2)CC1 [Example 613, 1-Ethyl-4-[1-(4′-fluorobiphenyl-4-yl)-5-pyrrol-1-yl-1H-pyrazol-4-ylmethyl]piperazine]?
**A.** IC50 [1]: 32 nM; IC50 [2]: 1000 nM

**Q.** Fc1ccc(-c2ccc(-n3ncc(CN4CCN(CCN5CCCC5)CC4)c3-c3ccco3)cc2)cc1 [Example 633, 1-[1-(4′-Fluorobiphenyl-4-yl)-5-furan-2-yl-1H-pyrazol-4-ylmethyl]-4-(2-pyrrolidin-1-ylethyl)piperazine] was tested. Which IC50 [1] did it give?
**A.** 41 nM

**Q.** What about the IC50 [2] of the same compound?
**A.** 1000 nM

**Q.** Which results are given for CCN(CC)Cc1cnn(-c2ccc(-c3cccc(F)c3)cc2)c1-c1ccco1 [Example 606, Diethyl-[1-(3′-fluorobiphenyl-4-yl)-5-furan-2-yl-1H-pyrazol-4-ylmethyl]amine]?
**A.** IC50 [1]: 27 nM; IC50 [2]: 1000 nM

**Q.** For CN1CCN(Cc2cnn(-c3ccc(-c4ccc(F)cc4)cc3)c2-c2ccsc2)CC1 [Example 556, 1-[1-(4′-Fluorobiphenyl-4-yl)-5-thiophen-3-yl-1H-pyrazol-4-ylmethyl]-4-methylpiperazine], which IC50 [1] is on record?
**A.** 7.8 nM

**Q.** And the IC50 [2]?
**A.** 630 nM

**Q.** What does the source list for CN1CCN(Cc2cnn(-c3ccc(-c4cccc(F)c4)cc3)c2-c2ccco2)CC1 [Example 559, 1-[1-(3′-Fluorobiphenyl-4-yl)-5-furan-2-yl-1H-pyrazol-4-ylmethyl]-4-methylpiperazine]?
**A.** IC50 [1]: 8.8 nM; IC50 [2]: 250 nM

**Q.** What does the source list for CCN1CCN(Cc2cnn(-c3ccc(-c4ccc(OC)cc4)cc3)c2-c2ccco2)CC1 [Example 551, 1-Ethyl-4-[5-furan-2-yl-1-(4′-methoxybiphenyl-4-yl)-1H-pyrazol-4-ylmethyl]piperazine]?
**A.** IC50 [1]: 6.1 nM; IC50 [2]: 495 nM

**Q.** How did the IC50 [1] turn out when CN1CCN(Cc2cnn(-c3ccc(-c4ccc(Cl)s4)cc3)c2-c2ccccc2F)CC1 [Example 589, 1-[1-[4-(5-Chlorothiophen-2-yl)phenyl]-5-(2-fluorophenyl)-1H-pyrazol-4-ylmethyl]-4-methylpiperazine] was run?
**A.** 20 nM

**Q.** What about the IC50 [2] of the same compound?
**A.** 2800 nM

**Q.** Which IC50 [1] does the source give for COc1ccccc1-c1c(CN2CCN(C)CC2)cnn1-c1ccc(-c2cc(F)ccc2F)cc1 [Example 660, 1-[1-(2′,5′-Difluorobiphenyl-4-yl)-5-(2-methoxyphenyl)-1H-pyrazol-4-ylmethyl]-4-methylpiperazine] here?
**A.** 77 nM

**Q.** What about the IC50 [2] of the same compound?
**A.** 630 nM

**Q.** What does the source list for Fc1ccccc1-c1c(CN2CCNCC2)cnn1-c1ccc(C(F)(F)F)cn1 [Example 588, 1-[5-(2-Fluorophenyl)-1-(5-trifluoromethylpyridin-2-yl)-1H-pyrazol-4-ylmethyl]piperazine]?
**A.** IC50 [1]: 20 nM; IC50 [2]: 1000 nM

**Q.** For CC(C)N1CCN(Cc2cnn(-c3ccc(-c4ccc(F)cc4)cc3)c2-c2ccco2)CC1 [Example 558, 1-[1-(4′-Fluorobiphenyl-4-yl)-5-furan-2-yl-1H-pyrazol-4-ylmethyl]-4-isopropylpiperazine], which IC50 [1] is on record?
**A.** 8.2 nM

**Q.** What about the IC50 [2] of the same compound?
**A.** 370 nM

**Q.** Which IC50 [1] does the source give for CN1CCN(Cc2cnn(-c3ccc(-c4cccn4C(=O)OC(C)(C)C)cc3)c2-c2ccccc2F)CC1 [Example 643, tert-Butyl 2-{4-[5-(2-fluorophenyl)-4-(4-methylpiperazin-1-ylmethyl)pyrazol-1-yl]phenyl}pyrrole-1-carboxylate] here?
**A.** 48 nM

**Q.** And the IC50 [2]?
**A.** 930 nM

**Q.** CN1CCN(Cc2cnn(-c3ccc(-c4ccc5c(c4)OCCO5)cc3)c2-c2ccco2)CC1 [Example 535, 1-{1-[4-(2,3-Dihydrobenzo-1,4-dioxin-6-yl)phenyl]-5-furan-2-yl-1H-pyrazol-4-ylmethyl}-4-methylpiperazine] was tested. Which IC50 [1] did it give?
**A.** 2.3 nM

**Q.** And the IC50 [2]?
**A.** 350 nM

**Q.** Which results are given for CN1CCN(Cc2cnn(-c3ccc(-c4ccc5c(c4)OCO5)cc3)c2-c2ccccc2F)CC1 [Example 563, 1-[1-(4-Benzo-1,3-dioxol-5-ylphenyl)-5-(2-fluorophenyl)-1H-pyrazol-4-ylmethyl]-4-methylpiperazine]?
**A.** IC50 [1]: 10 nM; IC50 [2]: 510 nM

**Q.** For OC1CCN(Cc2cnn(-c3ccc(-c4ccc5c(c4)OCO5)cc3)c2-c2ccco2)C1 (centres unmarked) [Example 548, 1-[1-(4-Benzo-1,3-dioxol-5-ylphenyl)-5-furan-2-yl-1H-pyrazol-4-ylmethyl]pyrrolidin-3-ol], which IC50 [1] is on record?
**A.** 5.1 nM

**Q.** What about the IC50 [2] of the same compound?
**A.** 410 nM

**Q.** Which results are given for OC1CCN(Cc2cnn(-c3ccc(-c4ccc(F)cc4)cc3)c2-c2ccccc2Cl)C1 (centres unmarked) [Example 636, 1-[5-(2-Chlorophenyl)-1-(4′-fluorobiphenyl-4-yl)-1H-pyrazol-4-ylmethyl]pyrrolidin-3-ol]?
**A.** IC50 [1]: 42 nM; IC50 [2]: 1000 nM

**Q.** How did the IC50 [1] turn out when CCN1CCN(Cc2cnn(-c3ccc(-c4ccc5c(c4)OCCO5)cc3)c2-c2ccco2)CC1 [Example 557, 1-{1-[4-(2,3-Dihydrobenzo-1,4-dioxin-6-yl)phenyl]-5-furan-2-yl-1H-pyrazol-4-ylmethyl}-4-ethylpiperazine] was run?
**A.** 8 nM

**Q.** And the IC50 [2]?
**A.** 349 nM

**Q.** CN1CCN(Cc2cnn(-c3ccc(-c4cc(F)ccc4F)cc3)c2-c2ccco2)CC1 [Example 624, 1-[1-(2′,5′-Difluorobiphenyl-4-yl)-5-furan-2-yl-1H-pyrazol-4-ylmethyl]-4-methylpiperazine] was tested. Which IC50 [1] did it give?
**A.** 36 nM

**Q.** What about the IC50 [2] of the same compound?
**A.** 280 nM

**Q.** Which results are given for CN1CCN(Cc2cnn(-c3ccc(-c4ccc(N(C)C)cc4)cc3)c2-c2ccccc2F)CC1 [Example 626, {4′-[5-(2-Fluorophenyl)-4-(4-methylpiperazin-1-ylmethyl)pyrazol-1-yl]biphenyl-4-yl}dimethylamine]?
**A.** IC50 [1]: 36 nM; IC50 [2]: 1000 nM

**Q.** How did the IC50 [1] turn out when OC1CCN(Cc2cnn(-c3ccc(-c4ccc(F)cc4)cn3)c2-c2ccco2)C1 (centres unmarked) [Example 614, 1-{1-[5-(4-Fluorophenyl)pyridin-2-yl]-5-furan-2-yl-1H-pyrazol-4-ylmethyl}pyrrolidin-3-ol] was run?
**A.** 32 nM

**Q.** What about the IC50 [2] of the same compound?
**A.** 1000 nM

**Q.** How did the IC50 [1] turn out when CN(C)C1CCN(Cc2cnn(-c3ccc(-c4ccc(F)cc4)cc3)c2-c2ccco2)C1 (centres unmarked) [Example 537, {1-[1-(4′-Fluorobiphenyl-4-yl)-5-furan-2-yl-1H-pyrazol-4-ylmethyl]pyrrolidin-3-yl}dimethylamine] was run?
**A.** 3.1 nM

**Q.** What about the IC50 [2] of the same compound?
**A.** 620 nM

**Q.** CN(C)CCCN(C)Cc1cnn(-c2ccc(-c3ccc(F)cc3)cc2)c1-c1ccco1 [Example 659, N-[1-(4′-Fluorobiphenyl-4-yl)-5-furan-2-yl-1H-pyrazol-4-ylmethyl]-N,N′,N′-trimethylpropane-1,3-diamine] was tested. Which IC50 [1] did it give?
**A.** 76 nM

**Q.** And the IC50 [2]?
**A.** 810 nM

**Q.** Which IC50 [1] does the source give for COc1ccccc1-c1c(CN2CCN(C)CC2)cnn1-c1ccc(-c2ccccc2F)cc1 [Example 647, 1-[1-(2′-Fluorobiphenyl-4-yl)-5-(2-methoxyphenyl)-1H-pyrazol-4-ylmethyl]-4-methylpiperazine] here?
**A.** 52 nM

**Q.** What about the IC50 [2] of the same compound?
**A.** 840 nM

**Q.** How did the IC50 [1] turn out when CN(C)CCN(C)Cc1cnn(-c2ccc(-c3ccc(F)cc3)cc2)c1-c1ccco1 [Example 635, N-[1-(4′-Fluorobiphenyl-4-yl)-5-furan-2-yl-1H-pyrazol-4-ylmethyl]-N,N′,N′-trimethylethane-1,2-diamine] was run?
**A.** 41 nM

**Q.** And the IC50 [2]?
**A.** 1000 nM

**Q.** CN1CCN(Cc2cnn(-c3ccc(-c4cc(F)c(OC(F)(F)F)c(F)c4)cc3)c2-c2ccccc2F)CC1 [Example 623, 1-[1-(3′,5′-Difluoro-4′-trifluoromethoxybiphenyl-4-yl)-5-(2-fluorophenyl)-1H-pyrazol-4-ylmethyl]-4-methylpiperazine] was tested. Which IC50 [1] did it give?
**A.** 35 nM

**Q.** And the IC50 [2]?
**A.** 180 nM

**Q.** What does the source list for Fc1cccc(-c2ccc(-n3ncc(CN4CCNCC4)c3-c3ccco3)cc2)c1 [Example 541, 1-[1-(3′-Fluorobiphenyl-4-yl)-5-furan-2-yl-1H-pyrazol-4-ylmethyl]piperazine]?
**A.** IC50 [1]: 3.6 nM; IC50 [2]: 150 nM

**Q.** For Fc1ccc(-c2ccc(-n3ncc(CN4CCC(COc5ccccn5)CC4)c3-c3ccco3)cc2)cc1 [Example 561, 2-{1-[1-(4′-Fluorobiphenyl-4-yl)-5-furan-2-yl-1H-pyrazol-4-ylmethyl]piperidin-4-ylmethoxy}pyridine], which IC50 [1] is on record?
**A.** 9 nM

**Q.** What about the IC50 [2] of the same compound?
**A.** 1000 nM

**Q.** How did the IC50 [1] turn out when CN(C)CCN(C)Cc1cnn(-c2ccc(-c3ccc(F)cc3)cc2)c1-c1cccc(Cl)c1 [Example 639, N-[5-(3-Chlorophenyl)-1-(4′-fluorobiphenyl-4-yl)-1H-pyrazol-4-ylmethyl]-N,N′,N′-trimethylethane-1,2-diamine] was run?
**A.** 43 nM

**Q.** And the IC50 [2]?
**A.** 1000 nM

**Q.** How did the IC50 [1] turn out when OC1CCN(Cc2cnn(-c3ccc(-c4ccc5c(c4)OCCO5)cc3)c2-c2ccco2)C1 (centres unmarked) [Example 544, 1-{1-[4-(2,3-Dihydrobenzo-1,4-dioxin-6-yl)phenyl]-5-furan-2-yl-1H-pyrazol-4-ylmethyl}pyrrolidin-3-ol] was run?
**A.** 4.3 nM

**Q.** What about the IC50 [2] of the same compound?
**A.** 470 nM

**Q.** With CN1CCN(Cc2cnn(-c3ccc(-c4ccc(F)cc4)cn3)c2-c2ccco2)CC1 [Example 590, 1-{1-[5-(4-Fluorophenyl)pyridin-2-yl]-5-furan-2-yl-1H-pyrazol-4-ylmethyl}-4-methylpiperazine] as the compound, how does the IC50 [1] read?
**A.** 20 nM

**Q.** What about the IC50 [2] of the same compound?
**A.** 1000 nM
